The text below walks through data of patent publication US12637410B2, “Vesicular monoamine transporter-2 ligands and their use in the treatment of psychostimulant abuse” (priority 2016, dated 2026).

Like-named read-outs stand apart in the source and are kept apart here.

For series [1], the system named is METH-stimulated locomotor activity. The series is described as follows: METH-stimulated locomotor activity in rats. The settings on record: s.c. The class given is in vivo, rat. On the procedure: A series of VMAT2 inhibitors were synthesized and evaluated for their activity at VMAT2, dopamine transporters (DAT), and serotonin transporters (SERT) using rat striatum, hERG channels expressed by HEK-293 cells, and for their effect on METH-stimulated locomotor activity in rats.
The compounds of the invention were also evaluated for their effect on METH-stimulated locomotor activity in rats.

Series [2] concerns the target T1, VMAT2 (Rattus norvegicus, UniProt Q01827).
T1 construct: from tissue; host or cells: rat striatum, isolated synaptic vesicles
Briefly: [3H]Dopamine ([3H]DA) uptake assay, vesicular preparation. The format is biochemical.

The conditions of series [3]: both, 0.08 µM, pH 7.4.
Experimental: (§1) Each plate holds triplicate samples of two controls (0.4 mM) and up to 14 compounds (0.08 mM) in rat and human liver microsomes. Aliquots of each well of the plate (175 μl of each well) were transferred from the master plate into 5 assay plates. […] NADPH regenerating system solution A (6.05 ml, Fisher Scientific, #NC9255727) was combined with NADPH regenerating system solution B (1.21 ml, Fisher Scientific, #NC9016235) in potassium phosphate buffer (15.8 ml, 0.1 M, pH 7.4, 37° C.). The resulting NADPH solution (43.8 μl) was added to each well of all the 96-well assay plates and mixed with pipette briefly making the final protein and compound concentrations respectively: 0.5 mg/ml, 0.08 μM (0.4 μM for controls). Plates were sealed, and all plates except the 0-hr plate were incubated at 37° C., shaken at a speed of 60 rpm. A single assay plate was tested at each time point: 0.5 hr, 1 hr, 2 hr, and 4 hr. At each time point, 437.5 μL of pre-cooled internal standard was added each well of the plate to quench the reaction. […] 120 μl supernatant was transferred to a 96-well plate, centrifuged again and analyzed by UPLC-MS (Waters Inc., Milford, MA). The compounds and internal standard were detected by selected ion recording (SIR).
(§2) The amount of material was measured as a ratio of peak area to the internal standard and graphed. Using the slope from the initial linear portion of this curve, the degradation rate constant is calculated using equation [1]. The rate constant was then used to calculate the compounds half-life in plasma using equation [2].
Series [4] can be described thus: Microsomal assays, rat liver microsomes. The settings on record: for Microsomal stability assays: Species/Half-life (hr) Rat: rat liver microsomes; for CLint scaled at 0.08 µM / half-life at 0.08 µM: female, Sprague-Dawley, rat, pH 7.4. Background: Liver microsomes are vesicles of endoplasmic reticulum, rich in cytochrome P450 enzymes.
Experimental: as §1, §2
Series [5] is described as follows: Microsomal assays, human liver microsomes. The note with it: for Microsomal stability assays: Species/Half-life (hr) Human: human liver microsomes; for half-life at 0.08 µM: both, human, pH 7.4.
Experimental: as §1, §2
The conditions of series [6]: female, Sprague-Dawley, 0.08 µM, pH 7.4.
Experimental: as §1, §2
Series [7] in a line: Pharmacokinetic assays in mice (iv, po, sc). The class given is in vivo.
Series [8] deals with T2, hERG channel (Homo sapiens, UniProt Q12809).
T2 construct: purchased; host or cells: HEK-293 cells stably expressing hERG (membranes)
T2 sequence (Q12809 whole entry): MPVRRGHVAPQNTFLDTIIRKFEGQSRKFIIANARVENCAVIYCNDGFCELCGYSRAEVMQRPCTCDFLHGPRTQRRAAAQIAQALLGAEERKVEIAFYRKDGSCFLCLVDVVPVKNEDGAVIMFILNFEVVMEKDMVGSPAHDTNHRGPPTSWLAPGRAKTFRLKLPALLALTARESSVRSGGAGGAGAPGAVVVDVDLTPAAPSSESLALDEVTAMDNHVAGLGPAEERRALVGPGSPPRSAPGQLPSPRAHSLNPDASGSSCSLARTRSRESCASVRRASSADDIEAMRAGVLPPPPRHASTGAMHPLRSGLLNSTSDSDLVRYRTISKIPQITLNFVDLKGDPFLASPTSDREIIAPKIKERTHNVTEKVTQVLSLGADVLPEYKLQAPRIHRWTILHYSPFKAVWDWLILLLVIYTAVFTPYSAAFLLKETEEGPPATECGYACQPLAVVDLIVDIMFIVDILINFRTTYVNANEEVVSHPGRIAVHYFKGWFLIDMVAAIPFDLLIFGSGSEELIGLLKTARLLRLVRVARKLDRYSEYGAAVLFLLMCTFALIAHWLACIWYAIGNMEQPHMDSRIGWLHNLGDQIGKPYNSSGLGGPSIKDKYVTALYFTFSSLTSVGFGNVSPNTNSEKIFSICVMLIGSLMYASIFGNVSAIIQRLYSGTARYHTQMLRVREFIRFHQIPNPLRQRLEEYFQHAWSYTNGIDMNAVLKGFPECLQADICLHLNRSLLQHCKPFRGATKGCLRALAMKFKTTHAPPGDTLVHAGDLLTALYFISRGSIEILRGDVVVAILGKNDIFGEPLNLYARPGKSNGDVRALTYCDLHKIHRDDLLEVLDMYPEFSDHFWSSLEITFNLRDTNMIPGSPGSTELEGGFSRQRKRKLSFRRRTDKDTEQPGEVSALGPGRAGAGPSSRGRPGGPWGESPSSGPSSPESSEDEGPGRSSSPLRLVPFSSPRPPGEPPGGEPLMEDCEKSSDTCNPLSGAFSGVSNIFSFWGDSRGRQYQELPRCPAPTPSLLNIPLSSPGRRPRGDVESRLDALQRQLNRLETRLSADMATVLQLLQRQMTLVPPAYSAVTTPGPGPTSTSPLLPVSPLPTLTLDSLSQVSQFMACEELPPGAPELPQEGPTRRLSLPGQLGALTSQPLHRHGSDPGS
The series is described as follows: [3H]Dofetilide binding assay, HEK-293 cell membrane preparation. The note with it: hERG Binding: Mean Ki (nM). On the procedure: Membranes were suspended in assay buffer (50 mM Tris, 10 mM KCl, 1 mM MgCl2, pH 7.4) prior to the experiment. […] Nonspecific binding was determined in the presence of amitriptyline (1 mM). Samples were incubated for 1 hr. at 24° C., followed by rapid filtration.
Background: hERG is a cardiac potassium channel; its block is linked to QT prolongation.

Series [9] can be described thus: in vivo. The note with it: male, Sprague-Dawley, rat.
Experimental: (§3) Animals: Oral and intravenous dose pharmacokinetic studies were conducted in tandem in age matched female Swiss Webster mice and/or age matched male Sprague-Dawley rats purchased from Envigo-Harlan. Animals were housed in IVC cages with wood chip bedding and given food and water ad libitum.
(§4) Dose Formulation and Administration Volumes: Hydrochloric acid salts or free base forms were used for formulation.
(§5) Pharmacokinetic Studies: Groups of 6 animals were dosed with formulated test compound by bolus lateral tail vein injection (iv), by oral gavage (po), or by subcutaneous injection (sc) into left hind flank. […] Whole blood samples were collected into microtubes and centrifuged at 4000×g for 2 min. Plasma supernatants were collected and immediately frozen on dry ice, then transferred to a −80° C. freezer to await processing for LC-MS/MS analysis. Typical dose rates were 2 mg/kg iv, 10 mg/kg po, and <30 mg/kg sc.
(§6) Plasma calibrators (usually 0.25, 0.5, 1, 5, 15, 30, 100, 400, 700, and 1000 ng/mL) were generated by the addition of 5 μL of appropriate spiking solution into 100 μL blank plasma followed by vortex mixing. Plasma QC samples (usually 0.75, 25, 500, and 850 ng/mL) were prepared in a similar manner using an independent 2nd analyte stock solution. Calibrators and QCs were stored alongside experimental samples at −80° C. until analysis.
(§7) Analyte and internal standard contained in 5 μL sample injections (15° C. temp.; 1.5 mL 0.1% formic acid in MeOH or 1:1 MeOH: isopropanol injector rinse; 10 sec rinse dip time) were eluted from a guard-protected (2.7 μL, 3×5 mm) Agilent Poroshell 120 EC-C18 (2.7 μL, 3×50 mm; oven temp. 40° C.) analytical column with a 0.1% formic acid in water (mobile Phase-A): 0.1% formic acid in acetonitrile (mobile Phase-B) gradient. […] Positive-mode ESI Turbo V® source and MS gas, temperature, and probe settings were optimized for 0.4 mL flow rate at CUR=35/ISV=4500/TEM=550/GS1=65/GS2=65/CAD=10 with the probe position=7/0.5 horizontal/vertical. […] ISTD voltage potentials were set at DP=70, EP=10, CE=35 and CXP=6. Sample sequences consisted of single randomized experimental sample injections flanked by sets of blanks, calibrators and QCs with QCs interspersed, as needed, to maintain >5% total QC to experimental sample occurrence. High QCs (5,000 and 10,000 ng/mL) were inserted at end of sequence prior to second calibrator injections. Calibration curves were typically constructed by weighted (1/x^2) non-linear regression analysis of analyte/ISTD concentration ratios to analyte/ISTD peak area ratios using AB SciexMultiQuant software (Ver 3.0.31721.0).
The nature of series [10]: Pharmacokinetic assays in rats (iv, po, sc). The settings on record: rat.
Experimental: as §3, §4, §5, §6, §7
Series [11] has as its target dopamine transporter (DAT) (Rattus norvegicus, UniProt P23977). The series is described as follows: [3H]DA uptake assay, synaptosomal preparation.
Experimental: [^3H]DA and [3H]5-HT uptake into striatal synaptosomes was determined to evaluate compound inhibition of the dopamine transporter (DAT) and the serotonin transporter (SERT), respectively. […] Assays were performed in duplicate in a total volume of 500 μL (for DAT assays) or 250 μL (for SERT assays). Aliquots of the synaptosomal suspension (25 μL for DAT, 50 μL for SERT) were added to tubes containing assay buffer and various concentrations of analog (1 nM-100 μM), and incubated at 34° C. for 5 min. Nonspecific uptake was determined in the presence of nomifensine (10 μM) for DAT assays or fluoxetine (10 μM) for SERT assays. […] Samples were placed on ice, and 50 μL of 0.1 μM [^3H]DA (for DAT assays) or 25 μL of 0.1 μM [^3H]5-HT (for SERT assays) was added to each tube, and incubated for 10 min at 34° C. Reactions were terminated by addition of 3 mL of ice-cold assay buffer and subsequent filtration and radioactivity retained by the filters was determined by liquid scintillation spectrometry (Tri-Carb 2100TR liquid scintillation analyzer; PerkinElmer Life and Analytical Sciences, Boston, MA).
A short description of series [12]: in vitro. The note with it: female, Sprague-Dawley, rat, pH 7.4.
Experimental: as §1, §2
Series [13] is described as follows: in vitro. The note with it: both, human, pH 7.4.
Experimental: as §1, §2
The test system of series [14] is rat striatal slices. The settings on record: cited from earlier work.
In series [15] the test system is METH self-administration. The settings on record: in vivo; cited from earlier work.
[16] abbreviates: [3H]dofetilide binding, HEK-293 membranes, mean of n>=3 unless N given.

Chain of dopamine transporter (DAT) (P23977 whole entry): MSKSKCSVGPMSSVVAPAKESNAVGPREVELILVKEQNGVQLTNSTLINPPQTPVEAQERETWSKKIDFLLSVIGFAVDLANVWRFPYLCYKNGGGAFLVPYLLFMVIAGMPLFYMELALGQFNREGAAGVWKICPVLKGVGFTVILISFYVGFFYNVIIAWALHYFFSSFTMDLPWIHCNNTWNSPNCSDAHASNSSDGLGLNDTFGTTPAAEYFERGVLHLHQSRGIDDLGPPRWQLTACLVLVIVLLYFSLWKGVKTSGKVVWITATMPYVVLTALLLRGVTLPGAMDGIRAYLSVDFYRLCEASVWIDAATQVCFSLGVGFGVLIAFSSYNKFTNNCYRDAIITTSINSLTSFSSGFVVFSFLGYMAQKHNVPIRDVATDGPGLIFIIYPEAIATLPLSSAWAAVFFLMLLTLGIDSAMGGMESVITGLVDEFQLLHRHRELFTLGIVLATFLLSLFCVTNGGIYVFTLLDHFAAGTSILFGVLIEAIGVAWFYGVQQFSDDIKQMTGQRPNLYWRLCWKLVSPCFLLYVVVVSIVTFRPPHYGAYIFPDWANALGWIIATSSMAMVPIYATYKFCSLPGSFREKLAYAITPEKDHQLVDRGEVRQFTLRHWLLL
T1 sequence (Q01827 whole entry): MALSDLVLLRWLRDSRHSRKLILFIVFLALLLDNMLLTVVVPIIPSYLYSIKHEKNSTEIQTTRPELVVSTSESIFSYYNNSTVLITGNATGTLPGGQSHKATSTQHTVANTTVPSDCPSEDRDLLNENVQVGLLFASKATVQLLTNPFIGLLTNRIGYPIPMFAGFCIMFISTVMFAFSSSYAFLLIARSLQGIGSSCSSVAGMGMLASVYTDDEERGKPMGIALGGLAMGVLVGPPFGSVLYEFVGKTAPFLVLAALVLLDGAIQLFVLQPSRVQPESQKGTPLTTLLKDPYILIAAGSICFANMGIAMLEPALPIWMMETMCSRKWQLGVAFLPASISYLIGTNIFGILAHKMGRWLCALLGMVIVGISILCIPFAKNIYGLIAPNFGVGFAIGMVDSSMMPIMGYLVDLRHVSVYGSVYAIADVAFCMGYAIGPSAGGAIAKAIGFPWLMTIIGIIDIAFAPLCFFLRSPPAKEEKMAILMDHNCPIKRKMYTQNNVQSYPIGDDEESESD

Regarding `COc1ccc(CCCN[C@H](C)Cc2ccccc2)cc1.Cl` [Compound 9], in series [1] (3 mg/kg), the METH-stimulated locomotor activity entry is on record as “significant reduction”.

As to `COc1ccc(CCCN[C@@H](C)Cc2ccccc2)cc1.Cl` [Compound 10, (S)-3-(4-methoxyphenyl)-N-(1-phenylpropan-2-yl)propan-1-amine], in series [1] (17 mg/kg), the METH-stimulated locomotor activity result was “significant reduction”.

As a reminder, the Ki is the dissociation constant of the complex between target and ligand, obtained from inhibition or displacement. Consider `FCC(Cc1ccc(-c2cncnc2)cc1)NCCCc1ccc(F)cc1` (stereo not shown) [Compound 68], for which the Ki in series [2] is 0.005 µM. The “Microsomal stability assays: Species/Half-life (hr) Human” value in [3] came out at 0.1 h.

For `O=[N+]([O-])c1ccc(CCCNC(CF)Cc2ccc(F)cc2)cc1` (stereo not shown) [Compound 123], the Ki in series [2] ([3H]DA uptake, rat vesicular preparation, mean of n>=3 unless N given, read-out: VMAT2 (rat) Inhibition: Mean Ki) amounted to 0.044 µM. The “Microsomal stability assays: Species/Half-life (hr) Rat” value in series [4] came out at 0.4 h. Moreover, the “Microsomal stability assays: Species/Half-life (hr) Human” value in series [5] came out at 1.2 h.

As for `OCC(Cc1ccc(F)cc1)NCCCc1ccc(Br)cc1` (stereo not shown) [Compound 154], the “Microsomal stability assays: Species/Half-life (hr) Rat” value in [6] was found to be 0.1 h.

What is called half-life is the time in which the quantity being followed falls by half. Low readings indicate rapid decline, high ones slow decline. With `CC(Cc1ccncc1)NCCCc1ccc(F)cc1` (stereo not shown) [Compound 187], the “Bioavail. (F %) Fmice” value in series [7] is listed as “Fmice: 9.4%”. This compound registered a half-life at 0.08 µM in series [5] of over 240 min.

`CC(Cc1ccc(C(F)(F)F)cc1)NCCCc1ccc(O)cc1` (stereo not shown) [Compound 209]: the “Microsomal stability assays: Species/Half-life (hr) Rat” value in [4] is 0.2 h. Also, the “Microsomal stability assays: Species/Half-life (hr) Human” value in [5] is 0.1 h.

A word on the bioavailability: it is the share of a dose that reaches the circulation, judged against a reference dose that is usually intravenous. Low values mean poor availability, high ones good availability. By CLint scaled is commonly meant a measure of how fast metabolising enzymes remove a compound, apart from limits set by blood flow. Lower therefore signals greater metabolic stability. For `CC(Cc1ccc(F)c(F)c1)NCCCc1ccc(NC(N)=O)cc1` (stereo not shown) [Compound 229], the Ki in series [2] was found to be 0.036 µM; in series [8] (Table 4, mean, minimally n = 3), 4290 nM; in series [8] (setting [16]), 4290 nM; in [11], 1.53 µM. This compound came in with a bioavailability in series [9] (po) of 94%. The CLint scaled at 0.08 µM in series [4] is 41 mL/min/kg. In [10], the “Bioavail. (F %) Frat” value is on record as “Frat: 22%”.

In the case of `CC(Cc1ccc(F)c(F)c1)NCCCc1ccc(S(N)(=O)=O)cc1` (stereo not shown) [Compound 230], the Ki was determined as 0.042 µM in [2]; 1030 nM in [8] (Table 4, mean, minimally n = 3); 1030 nM in series [8] (setting [16]); 8.24 µM in [11]. Moreover, the bioavailability stood at 94% in [9] (po) and 44% in [9] (sc). This compound also showed a CLint scaled at 0.08 µM in series [4] of under 17 mL/min/kg. Further, in series [10], the “Bioavail. (F %) Frat” value is “Frat: >100%”.

Take `CC(Cc1ccc(F)c(F)c1)NCCCc1cccc(NC(N)=O)c1` (stereo not shown) [Compound 235]: the Ki in [2] was 0.004 µM; in series [8] (Table 4, mean, minimally n = 3), 4380 nM; in [8] (setting [16]), 4380 nM; in series [11], 1.29 µM. Also, the bioavailability in [9] (po) came to 8%. Moreover, in series [4], the intrinsic metabolic clearance (CLint scaled) at 0.08 µM came to 71 mL/min/kg.

Consider `CC(Cc1ccccc1)NCCCc1ccc(F)cc1` (stereo not shown) [Compound 249], for which the Ki in series [2] was 0.006 µM; in [8] (setting [16]) it was 3000 nM. The “Bioavail. (F %) Fmice” value in [7] is on record as “Fmice: 2.0%”. Also, the half-life at 0.08 µM in [4] was 18 min; in series [5] it was 72 min.

With `CC(Cc1ccc(F)cc1)NCCCc1ccc(CN)cc1` (stereo not shown) [Compound 285], in series [2], the Ki turned out to be 0.461 µM. Also, the half-life at 0.08 µM in series [4] and in series [5] was over 240 min each time.

With `Fc1ccc(CCCNC(Cc2ccccc2)Cc2ccccc2)cc1` [Compound 292], the Ki in series [2] is 0.346 µM. Further, the half-life at 0.08 µM is under 6 min in series [12] and 36 min in series [13].

`CC(Cc1ccc(F)cc1)NC(=O)CCc1ccc([N+](=O)[O-])cc1` (stereo not shown) [Compound 293] returned a Ki in series [2] of 10.8 µM. Also, the figures for the half-life at 0.08 µM in series [12] and in series [13] were 30 min and 24 min, respectively.

Take `CC(Cc1ccc(F)cc1)NC(=O)CCc1ccc(C#N)cc1` (stereo not shown) [Compound 294]: in series [2], the Ki turned out to be 40.6 µM. The half-life at 0.08 µM in series [4] and in series [5] was 48 min each time.

For `CC(Cc1ccc2nccnc2c1)NCCCc1ccc(C(N)=O)cc1` (stereo not shown) [Compound 307], the Ki in [2] worked out at 0.017 µM; in series [8] (Table 4, mean, minimally n = 3), 21000 nM; in series [11], 8.89 µM. In addition, the bioavailability in series [9] (po) is 8%; in series [9] (sc) it was over 100%. The CLint scaled at 0.08 µM in [4] came out at 51 mL/min/kg.

With `CN1[C@@H](CCc2ccccc2)CCC[C@H]1CCc1ccccc1` [Lobelane], the “METH-evoked DA overflow” value in [14] is on record as “decreases METH-evoked DA overflow”. Besides, in series [15], the METH self-administration entry was “decreases METH self-administration”.
